Reference: US9302999B2, “Substituted triazoles as herbicides” (E. I. DU PONT DE NEMOURS AND COMPANY, priority 2012, dated 2016)

Experiments:
Assay type in all cases: in vivo
[1] = tested on: large crabgrass (Digitaria sanguinalis); assay: Test C pre-/postemergence: large crabgrass
Method in brief: (§1)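 Preemergence on seeds in loam/sand, postemergence on 2–18 cm (1–4-leaf) plants in peat-based medium; compounds in non-phytotoxic solvent with surfactant. After 13–15 days in greenhouse, visual rating versus controls, 0 (no effect) to 100 (complete control).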

[2] = tested on: pigweed (Amaranthus retroflexus); assay: Test C pre-/postemergence: pigweed
Method in brief: as §1

[3] = tested on: crabgrass, large (large crabgrass, Digitaria sanguinalis); assay: Test A pre-/postemergence: crabgrass, large; conditions: for Crabgrass, Large plant response rating: Postemergence; for Plant response rating, Crabgrass, Large: Preemergence
Method in brief: (§2)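 Rating scale 0–100 (100 = complete control), visual, ~10 days after application in the greenhouse. Applications: preemergence directed soil spray; postemergence at 1–2 leaves.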

[4] = tested on: ragweed (common ragweed, Ambrosia elation); assay: Test C pre-/postemergence: ragweed
Method in brief: as §1

[5] = tested on: velvetleaf (Abutilon theophrasti); assay: Test A pre-/postemergence: velvetleaf; conditions: for Velvetleaf plant response rating: visual rating on 0 to 100 scale (0 no effect, 100 complete control), approximately ten days
Method in brief: as §2

[6] = tested on: ryegrass, Italian (Italian ryegrass, Lolium multiflorum); assay: Test C pre-/postemergence: ryegrass, Italian
Method in brief: as §1

kochia (Kochia scoparia) = assay: Test C pre-/postemergence: kochia
Method in brief: as §1

corn (Zea mays) = assay: Test A pre-/postemergence: corn; conditions: for Corn plant response rating: Postemergence; for Plant response rating, Corn: Preemergence
Method in brief: as §2

[7] = tested on: blackgrass (Alopecurus myosuroides); assay: Test C pre-/postemergence: blackgrass
Method in brief: as §1

soybean (Glycine max) = assay: Test C pre-/postemergence: soybean
Method in brief: as §1

[8] = tested on: galium (catchweed bedstraw, Galium aparine); assay: Test C pre-/postemergence: galium
Method in brief: as §1

[9] = tested on: foxtail, giant (giant foxtail, Setaria faberii); assay: Test C pre-/postemergence: foxtail, giant
Method in brief: as §1

[10] = Postemergence, 31 g ai/ha, scale 0 to 100 (0 no effect, 100 complete control)
[11] = Postemergence, 62 g ai/ha, scale 0 to 100 (0 no effect, 100 complete control)
[12] = Postemergence, 125 g ai/ha, scale 0 to 100, 0 no effect, 100 complete control
[13] = Postemergence, 250 g ai/ha, scale 0 to 100
[14] = Preemergence, 31 g ai/ha, scale of 0 to 100, 0 is no effect, 100 is complete control
[15] = Preemergence, 62 g ai/ha, scale of 0 to 100, 0 is no effect, 100 is complete control
[16] = Preemergence, 125 g ai/ha, scale 0 to 100, 0 no effect, 100 complete control
[17] = Preemergence, 250 g ai/ha, scale 0 to 100, 0 no effect, 100 complete control
[18] = 125 g ai/ha, 0 to 100 scale, 0 is no effect, 100 is complete control
[19] = 500 g ai/ha, visual rating on 0 to 100 scale (0 no effect, 100 complete control), approximately ten days
[20] = 125 g ai/ha, 0 to 100 scale where 0 is no effect and 100 is complete control
[21] = 500 g ai/ha, 0 to 100 scale (0 no effect, 100 complete control)
[22] = Postemergence, 125 g ai/ha, 0 to 100 scale, 0 is no effect, 100 is complete control
[23] = Preemergence, 125 g ai/ha, 0 to 100 scale where 0 is no effect and 100 is complete control
[24] = Preemergence, 500 g ai/ha, 0 to 100 scale (0 no effect, 100 complete control)

Compound: Fc1ccc(-n2nc(Cc3ccnc(C(F)(F)F)c3)c(OCC(F)(F)F)n2)cc1 [Compound 142]
- Plant response rating, Crabgrass, Large [1, 10]: 65
- Plant response rating, Crabgrass, Large [1, 11]: 80
- Plant response rating, Crabgrass, Large [1, 12]: 95
- Plant response rating, Crabgrass, Large [1, 13]: 95
- Plant response rating, Crabgrass, Large [1, 14]: 100
- Plant response rating, Crabgrass, Large [1, 15]: 100
- Plant response rating, Crabgrass, Large [1, 16]: 100
- Plant response rating, Crabgrass, Large [1, 17]: 100
- Plant response rating, Pigweed [2, 10]: 98
- Plant response rating, Pigweed [2, 11]: 98
- Plant response rating, Pigweed [2, 12]: 98
- Plant response rating, Pigweed [2, 13]: 98
- Plant response rating, Pigweed [2, 14]: 98
- Plant response rating, Pigweed [2, 15]: 98
- Plant response rating, Pigweed [2, 16]: 100
- Plant response rating, Pigweed [2, 17]: 100
- Crabgrass, Large plant response rating [3, 18]: 100
- Crabgrass, Large plant response rating [3, 19]: 100
- Plant response rating, Crabgrass, Large [3, 20]: 100
- Plant response rating, Crabgrass, Large [3, 21]: 100
- Plant response rating, Ragweed [4, 10]: 65
- Plant response rating, Ragweed [4, 11]: 70
- Plant response rating, Ragweed [4, 12]: 75
- Plant response rating, Ragweed [4, 13]: 75
- Plant response rating, Ragweed [4, 14]: 40
- Plant response rating, Ragweed [4, 15]: 40
- Plant response rating, Ragweed [4, 16]: 70
- Plant response rating, Ragweed [4, 17]: 80
- Plant response rating, Velvetleaf [5, 22]: 100
- Velvetleaf plant response rating ([5]; Postemergence, 500 g ai/ha): 100
- Plant response rating, Velvetleaf [5, 23]: 60
- Plant response rating, Velvetleaf [5, 24]: 90
- Plant response rating, Ryegrass, Italian [6, 10]: 10
- Plant response rating, Ryegrass, Italian [6, 11]: 40
- Plant response rating, Ryegrass, Italian [6, 12]: 50
- Plant response rating, Ryegrass, Italian [6, 13]: 50
- Plant response rating, Ryegrass, Italian [6, 14]: 30
- Plant response rating, Ryegrass, Italian [6, 15]: 90
- Plant response rating, Ryegrass, Italian [6, 16]: 90
- Plant response rating, Ryegrass, Italian [6, 17]: 90
- Plant response rating, Kochia (kochia (Kochia scoparia); [10]): 80
- Plant response rating, Kochia (kochia (Kochia scoparia); [11]): 90
- Plant response rating, Kochia (kochia (Kochia scoparia); [12]): 95
- Plant response rating, Kochia (kochia (Kochia scoparia); [13]): 95
- Plant response rating, Kochia (kochia (Kochia scoparia); [14]): 55
- Plant response rating, Kochia (kochia (Kochia scoparia); [15]): 80
- Plant response rating, Kochia (kochia (Kochia scoparia); [16]): 98
- Plant response rating, Kochia (kochia (Kochia scoparia); [17]): 100
- Corn plant response rating (corn (Zea mays); [18]): 50
- Corn plant response rating (corn (Zea mays); [19]): 80
- Plant response rating, Corn (corn (Zea mays); [20]): 30
- Plant response rating, Corn (corn (Zea mays); [21]): 80
- Plant response rating, Blackgrass [7, 10]: 55
- Plant response rating, Blackgrass [7, 11]: 60
- Plant response rating, Blackgrass [7, 12]: 80
- Plant response rating, Blackgrass [7, 13]: 90
- Plant response rating, Blackgrass [7, 14]: 90
- Plant response rating, Blackgrass [7, 15]: 90
- Plant response rating, Blackgrass [7, 16]: 90
- Plant response rating, Blackgrass [7, 17]: 90
- Plant response rating, Soybean (soybean (Glycine max); [10]): 50
- Plant response rating, Soybean (soybean (Glycine max); [11]): 55
- Plant response rating, Soybean (soybean (Glycine max); [12]): 55
- Plant response rating, Soybean (soybean (Glycine max); [13]): 55
- Plant response rating, Soybean (soybean (Glycine max); [14]): 0
- Plant response rating, Soybean (soybean (Glycine max); [15]): 5
- Plant response rating, Soybean (soybean (Glycine max); [16]): 5
- Plant response rating, Soybean (soybean (Glycine max); [17]): 20
- Plant response rating, Galium [8, 10]: 80
- Plant response rating, Galium [8, 11]: 80
- Plant response rating, Galium [8, 12]: 90
- Plant response rating, Galium [8, 13]: 90
- Plant response rating, Galium [8, 14]: 60
- Plant response rating, Galium [8, 15]: 80
- Plant response rating, Galium [8, 16]: 100
- Plant response rating, Galium [8, 17]: 100
- Plant response rating, Foxtail, Giant [9, 10]: 20
- Plant response rating, Foxtail, Giant [9, 11]: 75
- Plant response rating, Foxtail, Giant [9, 12]: 80
- Plant response rating, Foxtail, Giant [9, 13]: 90
- Plant response rating, Foxtail, Giant [9, 14]: 100
- Plant response rating, Foxtail, Giant [9, 15]: 100
- Plant response rating, Foxtail, Giant [9, 16]: 100
- Plant response rating, Foxtail, Giant [9, 17]: 100

Compound: Cc1nn(-c2ccc(F)c(F)c2)nc1Oc1ccnc(C(F)(F)F)c1 [Compound 145]
- Plant response rating, Crabgrass, Large [1, 10]: 25
- Plant response rating, Crabgrass, Large [1, 11]: 50
- Plant response rating, Crabgrass, Large [1, 12]: 85
- Plant response rating, Crabgrass, Large [1, 13]: 95
- Plant response rating, Crabgrass, Large [1, 14]: 98
- Plant response rating, Crabgrass, Large [1, 15]: 100
- Plant response rating, Crabgrass, Large [1, 16]: 100
- Plant response rating, Crabgrass, Large [1, 17]: 100
- Plant response rating, Pigweed [2, 10]: 85
- Plant response rating, Pigweed [2, 11]: 98
- Plant response rating, Pigweed [2, 12]: 98
- Plant response rating, Pigweed [2, 13]: 98
- Plant response rating, Pigweed [2, 14]: 90
- Plant response rating, Pigweed [2, 15]: 98
- Plant response rating, Pigweed [2, 16]: 98
- Plant response rating, Pigweed [2, 17]: 100
- Crabgrass, Large plant response rating [3, 18]: 90
- Crabgrass, Large plant response rating [3, 19]: 90
- Plant response rating, Crabgrass, Large [3, 20]: 100
- Plant response rating, Crabgrass, Large [3, 21]: 100
- Plant response rating, Ragweed [4, 10]: 60
- Plant response rating, Ragweed [4, 12]: 70
- Plant response rating, Ragweed [4, 13]: 70
- Plant response rating, Ragweed [4, 14]: 0
- Plant response rating, Ragweed [4, 15]: 10
- Plant response rating, Ragweed [4, 16]: 40
- Plant response rating, Ragweed [4, 17]: 55
- Plant response rating, Velvetleaf [5, 22]: 100
- Velvetleaf plant response rating ([5]; Postemergence, 500 g ai/ha): 100
- Plant response rating, Velvetleaf [5, 23]: 50
- Plant response rating, Velvetleaf [5, 24]: 80
- Plant response rating, Ryegrass, Italian [6, 10]: 20
- Plant response rating, Ryegrass, Italian [6, 11]: 30
- Plant response rating, Ryegrass, Italian [6, 12]: 40
- Plant response rating, Ryegrass, Italian [6, 13]: 50
- Plant response rating, Ryegrass, Italian [6, 14]: 5
- Plant response rating, Ryegrass, Italian [6, 15]: 35
- Plant response rating, Ryegrass, Italian [6, 16]: 90
- Plant response rating, Ryegrass, Italian [6, 17]: 90
- Plant response rating, Kochia (kochia (Kochia scoparia); [10]): 85
- Plant response rating, Kochia (kochia (Kochia scoparia); [11]): 85
- Plant response rating, Kochia (kochia (Kochia scoparia); [12]): 90
- Plant response rating, Kochia (kochia (Kochia scoparia); [13]): 95
- Plant response rating, Kochia (kochia (Kochia scoparia); [14]): 50
- Plant response rating, Kochia (kochia (Kochia scoparia); [15]): 90
- Plant response rating, Kochia (kochia (Kochia scoparia); [16]): 98
- Plant response rating, Kochia (kochia (Kochia scoparia); [17]): 98
- Corn plant response rating (corn (Zea mays); [18]): 40
- Corn plant response rating (corn (Zea mays); [19]): 90
- Plant response rating, Corn (corn (Zea mays); [20]): 10
- Plant response rating, Corn (corn (Zea mays); [21]): 40
- Plant response rating, Blackgrass [7, 10]: 10
- Plant response rating, Blackgrass [7, 11]: 60
- Plant response rating, Blackgrass [7, 12]: 70
- Plant response rating, Blackgrass [7, 13]: 70
- Plant response rating, Blackgrass [7, 14]: 85
- Plant response rating, Blackgrass [7, 15]: 90
- Plant response rating, Blackgrass [7, 16]: 90
- Plant response rating, Blackgrass [7, 17]: 90
- Plant response rating, Soybean (soybean (Glycine max); [10]): 50
- Plant response rating, Soybean (soybean (Glycine max); [11]): 50
- Plant response rating, Soybean (soybean (Glycine max); [12]): 55
- Plant response rating, Soybean (soybean (Glycine max); [13]): 60
- Plant response rating, Soybean (soybean (Glycine max); [15]): 5
- Plant response rating, Soybean (soybean (Glycine max); [16]): 5
- Plant response rating, Soybean (soybean (Glycine max); [17]): 10
- Plant response rating, Galium [8, 10]: 80
- Plant response rating, Galium [8, 11]: 80
- Plant response rating, Galium [8, 12]: 90
- Plant response rating, Galium [8, 13]: 95
- Plant response rating, Galium [8, 14]: 60
- Plant response rating, Galium [8, 15]: 98
- Plant response rating, Galium [8, 16]: 100
- Plant response rating, Galium [8, 17]: 100
- Plant response rating, Foxtail, Giant [9, 10]: 15
- Plant response rating, Foxtail, Giant [9, 11]: 20
- Plant response rating, Foxtail, Giant [9, 12]: 50
- Plant response rating, Foxtail, Giant [9, 13]: 85
- Plant response rating, Foxtail, Giant [9, 14]: 95
- Plant response rating, Foxtail, Giant [9, 15]: 100
- Plant response rating, Foxtail, Giant [9, 16]: 100
- Plant response rating, Foxtail, Giant [9, 17]: 100
